Read-outs that look alike come from different tables or passages of the source.
Columns and labels:
[1] = target: SARS-CoV-2 main protease (Mpro) (Severe acute respiratory syndrome coronavirus 2, UniProt P0DTD1); assay: biochemical; conditions: read-out: Enzyme IC50
[2] = system: SARS-CoV-2 (strain USA-WA1/2020); assay: microbe, parasite or virus in culture; format: cell-based
HeLa-ACE2 cells = assay: cells; format: cell-based; conditions: Table 2, total cell count in infected plates
[3] = Uninfected host cell cytotoxicity counter screen; format: cell-based; conditions: human
Procedure, shortened: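 HeLa-ACE2 cells, uninfected, seeded at 400 cells/well with compounds and held 24 hours at 37° C., 5% CO2. Dead cells stained with Image-iT DEAD green, fixed in 4% paraformaldehyde, DAPI-counterstained and imaged. Data normalized to DMSO and 40 μM puromycin controls; concentration responses in triplicate.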

[4] = Severe acute respiratory syndrome coronavirus 2, Table 2, SARS-CoV-2 infected HeLa-ACE2 cells, read-out: CoV-2 HeLa EC50
[5] = Table 3, select example compounds against mpro
[6] = Severe acute respiratory syndrome coronavirus 2, HeLa, Table 3, read-out: CoV-2 HeLa EC50
[7] = Severe acute respiratory syndrome coronavirus 2, HeLa-ACE2, read-out: CoV-2 HeLa EC50, Table 2, SARS-CoV-2 infected HeLa-ACE2 cells

Structure (SMILES) | IC50 ([1]; Table 2) | EC50 [2, 4] | EC50 (HeLa-ACE2 cells) | CC50 at 24 h [3] | IC50 [1, 5] | EC50 [2, 6] | EC50 [2, 7]
Cc1cncc(C(=O)N2CCN(C(c3ccc(F)cc3)c3ccccc3F)CC2)c1 (stereo not drawn) [MKP-1277, 1-[(2-fluorophenyl)(4-fluorophenyl)methyl]-4-(5-methylpyridine-3-carbonyl)piperazine] | 150 nM | 747 nM | 2700 nM | > 39800 nM | – | – | –
Cc1cncc(C(=O)N2CCN(C(c3ccccc3)c3cc(F)cc(F)c3)CC2)c1 (stereo not drawn) [MKP-1280, 1-[(3,5-difluorophenyl)(phenyl)methyl]-4-(5-methylpyridine-3-carbonyl)piperazine] | 61 nM | 158 nM | 261 nM | > 39800 nM | – | – | –
Cc1cncc(C(=O)N2CCN(C(c3ccccc3)c3ccccc3F)CC2)c1 (stereo not drawn) [MKP-1287, 1-[(2-fluorophenyl)(phenyl)methyl]-4-(5-methylpyridine-3-carbonyl)piperazine] | 66 nM | 599 nM | 810 nM | > 39800 nM | – | – | –
Cc1cncc(C(=O)N2CCN(C(c3cccnc3)c3cccc(F)c3)CC2)c1 (stereo not drawn) [MKP-1290, 1-[(3-fluorophenyl)(pyridin-3-yl)methyl]-4-(5-methylpyridine-3-carbonyl)piperazine] | 96 nM | 105 nM | 186 nM | > 39800 nM | 96 nM | 105 nM | –
O=C(c1cc[nH]c(=O)c1)N1CCN(C(c2ccccc2)c2ccccc2)CC1 [NZ-769, 4-[4-(diphenylmethyl)piperazine-1-carbonyl]-1,2-dihydropyridin-2-one] | 11300 nM | 8050 nM | > 9610 nM | > 39800 nM | – | – | –
O=C(c1cncc(Br)c1)N1CCC(C(O)(c2ccccc2)c2ccccc2)CC1 [NZ-770, [1-(5-bromopyridine-3-carbonyl)piperidin-4-yl]diphenylmethanol] | 380 nM | 510 nM | > 9610 nM | > 39800 nM | – | – | –
O=C(c1cccnc1)N1CCC(=C(c2ccccc2)c2ccccc2)CC1 [NZ-772, 3-[4-(diphenylmethylidene)piperidine-1-carbonyl]pyridine] | 320 nM | 1010 nM | > 9610 nM | > 39800 nM | – | – | –
O=C(c1cncc(F)c1)N1CCC(C(O)(c2ccccc2)c2ccccc2)CC1 [NZ-778, [1-(5-fluoropyridine-3-carbonyl)piperidin-4-yl]diphenylmethanol] | 1700 nM | 3630 nM | > 9610 nM | > 39800 nM | – | – | –
O=C(c1cncc(Cl)c1)N1CCC(C(O)(c2ccccc2)c2ccccc2)CC1 [NZ-779, [1-(5-chloropyridine-3-carbonyl)piperidin-4-yl]diphenylmethanol] | 370 nM | 710 nM | > 9610 nM | > 39800 nM | – | – | –
O=C(c1cncc(F)c1)N1CCC(=C(c2ccccc2)c2ccccc2)CC1 [NZ-780, 3-[4-(diphenylmethylidene)piperidine-1-carbonyl]-5-fluoropyridine] | 310 nM | 1390 nM | > 9610 nM | 30100 nM | – | – | –
O=C(c1cncc(Cl)c1)N1CCC(=C(c2ccccc2)c2ccccc2)CC1 [NZ-781, 3-chloro-5-[4-(diphenylmethylidene)piperidine-1-carbonyl]pyridine] | 110 nM | 1050 nM | > 9610 nM | 35800 nM | – | – | –
Cc1cncc(C(=O)N2CCN(C3c4ccccc4C=Cc4ccccc43)CC2)c1 [NZ-784, (5-methyl-3-pyridyl)-[4-(2-tricyclo[9.4.0.03,8]pentadeca-1(11),3(8),4,6,9,12,14-heptaenyl)piperazin-1-yl]methanone] | 88 nM | 360 nM | > 9610 nM | 39400 nM | – | – | –
Cc1cc(C(=O)N2CCC(C(O)(c3ccccc3)c3ccccc3)CC2)c[n+]([O-])c1 [NZ-792, [4-[hydroxy(diphenyl)methyl]-1-piperidyl]-(5-methyl-1-oxo-3-pyridyl)methanone] | > 10000 nM | – | > 9610 nM | > 39800 nM | – | – | > 9610 nM
Cc1cncc(C(=O)N2CCN(C(c3ccccc3)c3ccc(S(C)(=O)=O)cc3)CC2)c1 (stereo not drawn) [NZ-799, 1-[(4-methanesulfonylphenyl)(phenyl)methyl]-4-(5-methylpyridine-3-carbonyl)piperazine] | 1240 nM | 2540 nM | 6580 nM | > 39800 nM | – | – | –
Cc1cncc(C(=O)N2CCC(=C3c4ccccc4CS(=O)(=O)c4ccccc43)CC2)c1 [NZ-801, [4-(5,5-dioxo-6H-benzo[c][1]benzothiepin-11-ylidene)-1-piperidyl]-(5-methyl-3-pyridyl)methanone] | 56 nM | 42 nM | 81 nM | > 39800 nM | 12 nM | 42 nM | –
O=C(c1cncc(Br)c1)N1CCC(=C2c3ccccc3CS(=O)(=O)c3ccccc32)CC1 [NZ-802, (5-bromo-3-pyridyl)-[4-(5,5-dioxo-6H-benzo[c][1]benzothiepin-11-ylidene)-1-piperidyl]methanone] | 67 nM | 60 nM | 41 nM | > 39800 nM | – | – | –
O=C(c1cncc2nc[nH]c12)N1CCC(=C2c3ccccc3CS(=O)(=O)c3ccccc32)CC1 [NZ-803, [4-(5,5-dioxo-6H-benzo[c][1]benzothiepin-11-ylidene)-1-piperidyl]-(1H-imidazo[4,5-c]pyridin-7-yl)methanone] | 91 nM | 183 nM | 325 nM | > 39800 nM | – | – | –
O=C(c1cncc2cc[nH]c12)N1CCC(=C2c3ccccc3CS(=O)(=O)c3ccccc32)CC1 [NZ-804, [4-(5,5-dioxo-6H-benzo[c][1]benzothiepin-11-ylidene)-1-piperidyl]-(1H-pyrrolo[3,2-c]pyridin-7-yl)methanone] | 30 nM | 15 nM | 162 nM | > 39800 nM | 9 nM | 15 nM | –
O=C(c1cncc2[nH]ccc12)N1CCC(=C2c3ccccc3CS(=O)(=O)c3ccccc32)CC1 [NZ-805, [4-(5,5-dioxo-6H-benzo[c][1]benzothiepin-11-ylidene)-1-piperidyl]-(1H-pyrrolo[2,3-c]pyridin-4-yl)methanone] | 48 nM | 58 nM | 64 nM | > 39800 nM | 14 nM | 58 nM | –
O=S1(=O)Cc2ccccc2C(N2CCC(C(O)c3cccnc3)CC2)c2ccccc21 (stereo not drawn) [NZ-806, [1-(5,5-dioxo-6,11-dihydrobenzo[c][1]benzothiepin-11-yl)-4-piperidyl]-(3-pyridyl)methanol] | 18900 nM | – | > 9610 nM | > 39800 nM | – | – | > 9610 nM
Cc1cncc(C(=O)N2CCN(C(c3ccccc3)c3ccccc3S(C)(=O)=O)CC2)c1 (stereo not drawn) [NZ-807, (5-methyl-3-pyridyl)-[4-[(2-methylsulfonylphenyl)-phenyl-methyl]piperazin-1-yl]methanone] | 610 nM | 1990 nM | > 9610 nM | > 39800 nM | – | – | –
O=C(c1cncc2cc[nH]c12)N1CCN(C2c3ccccc3CS(=O)(=O)c3ccccc32)CC1 (stereo not drawn) [NZ-808, [4-(5,5-dioxo-6,11-dihydrobenzo[c][1]benzothiepin-11-yl)piperazin-1-yl]-(1H-pyrrolo[3,2-c]pyridin-7-yl)methanone] | 32 nM | 25 nM | 30 nM | > 39800 nM | 10 nM | 25 nM | –
O=C(c1cncc2[nH]ccc12)N1CCN(C2c3ccccc3CS(=O)(=O)c3ccccc32)CC1 (stereo not drawn) [NZ-809, [4-(5,5-dioxo-6,11-dihydrobenzo[c][1]benzothiepin-11-yl)piperazin-1-yl]-(1H-pyrrolo[2,3-c]pyridin-4-yl)methanone] | 43 nM | 88 nM | 111 nM | > 39800 nM | 15 nM | 88 nM | –
O=C(c1cncc2nc[nH]c12)N1CCN(C2c3ccccc3CS(=O)(=O)c3ccccc32)CC1 (stereo not drawn) [NZ-810, [4-(5,5-dioxo-6,11-dihydrobenzo[c][1]benzothiepin-11-yl)piperazin-1-yl]-(1H-imidazo[4,5-c]pyridin-7-yl)methanone] | 75 nM | 482 nM | 434 nM | > 39800 nM | – | – | –
O=C(c1cccnc1)N1CCN(C2c3ccccc3CCc3ccccc32)CC1 [ZS-312, 3-pyridyl-[4-(2-tricyclo[9.4.0.03,8]pentadeca-1(11),3(8),4,6,12,14-hexaenyl)piperazin-1-yl]methanone] | 440 nM | 1040 nM | > 9610 nM | > 39800 nM | – | – | –
O=C(c1cncc(Cl)c1)N1CCN(C2c3ccccc3CCc3ccccc32)CC1 [ZS-317, (5-chloro-3-pyridyl)-[4-(2-tricyclo[9.4.0.03,8]pentadeca-1(11),3(8),4,6,12,14-hexaenyl)piperazin-1-yl]methanone] | 180 nM | 900 nM | > 9610 nM | > 39800 nM | – | – | –
O=C(c1cncc(F)c1)N1CCN(C2c3ccccc3CCc3ccccc32)CC1 [ZS-318, (5-fluoro-3-pyridyl)-[4-(2-tricyclo[9.4.0.03,8]pentadeca-1(11),3(8),4,6,12,14-hexaenyl)piperazin-1-yl]methanone] | 150 nM | 700 nM | > 9610 nM | > 39800 nM | – | – | –
